Assays:
[1] = Pharmacokinetics in the hamster (cecal contents); assay type: in vivo, male Syrian hamsters; conditions: male, Syrian, 2 mg/kg oral
Method: OPS-2071 was orally administered at 2 mg/kg to male Syrian hamsters, and the cecal contents were collected 0.5, 1, 2, 4, 8, 24, 48, and 72 h postdose (n = 5 for each time point). After homogenizing with saline and treatment using acetonitrile-formic acid (100:1 [vol/vol]), the OPS-2071 concentration in cecal contents was determined using a validated liquid chromatography-electrospray ionization-tandem mass spectrometry (LC-ESI-MS/MS) method. The mass spectrometer 4000 QTRAP (AB Sciex Pte. Ltd.) and high-performance liquid chromatography Prominence UFLC system (Shimadzu Corp.) were used. The pharmacokinetic (PK) parameters (Cmax) were determined with WinNonlin professional software version 6.3, (Pharsight Corp.).

C. difficile ATCC 700057 = assay: Postantibiotic effect (PAE); assay type: cell-based, Clostridioides difficile; conditions: for Postantibiotic effect: 1 h exposure
Method: C. difficile ATCC 700057 was cultured in GAM agar and adjusted in GAM broth to approximately 10^6 CFU/ml. The bacterial suspensions were preincubated at 37°C for 1 h. […] After preincubation, test and reference solutions were added to each bacterial suspension in a test tube, and the suspensions were cultured for 1 h. After exposure to the test compounds, bacterial suspensions were washed with GAM broth and cultured for 6 h. […] The PAE was defined according to Craig and Gudmundsson as PAE = T − C, where T is the time required for the viable counts of the exposed bacteria to increase by 1 log10 above the counts observed immediately after washing, and C is the corresponding time for the antibiotic unexposed controls ([44]).

C. difficile ATCC 43255 = assay: In vivo hamster model of C. difficile infection; parameters: species or system golden Syrian hamsters
Method: C. difficile ATCC 43255 was cultured on GAM agar, and a bacterial suspension was prepared in saline ([26]). […] Hamsters were infected using oral gavage with 0.5 ml of suspension containing approximately 10^6 CFU of C. difficile (day −1). The next day, the animals were administered clindamycin phosphate (0.2 mg/ml in water) by oral gavage at a dose of 5 ml/kg of body weight, for a final dose of 1 mg/kg (day 0). The animals were allocated to the test groups using a stratified randomization method based on the body weight of each infected animal. The test compounds were administered by oral gavage once daily for 5 days (OPS-2071, 0.008 to 1 mg/kg; fidaxomicin, 0.04 mg/kg to 5 mg/kg; vancomycin, 0.04 to 5 mg/kg [5-fold dilution]). Infected control animals were administered 5% (wt/vol) gum arabic solution by oral gavage. […] The cecal contents of dead animals were tested for toxin A and toxin B using C.Diff Quik Chek Complete (Abbott Diagnostics Medical Co., Ltd., Tokyo, Japan) to confirm that the death of the animal was due to CDI.
The statistical significance of OPS-2071, fidaxomicin, and vancomycin treatment was analyzed at all doses against vehicle. Survival curves were estimated for each group using the Kaplan-Meier method. Differences in survival homogeneity in each group were evaluated with a log-rank test with Dunnett-type (two-sided) comparison.

in vitro = conditions: mouse

Cc1c(-c2cnc(N)c(C#N)c2)c(F)cc2c(=O)c(C(=O)O)cn(C3CC3)c12 [OPS-2071, 7-(6-amino-5-cyanopyridin-3-yl)-1-cyclopropyl-6-fluoro-8-methyl-4-oxo-1,4-dihydroquinoline-3-carboxylic acid]
concentration at 24 h ([1]; 24 h, read-out: concentration in the cecal contents at 24 h postdose): 1840 ng/g | Cmax ([1]; reached at 4 h postdose, read-out: maximum concentration (Cmax) in the cecal contents): 43000 ng/g | PAEs at 4- and 8-fold the MIC (C. difficile ATCC 700057; 4- and 8-fold the MIC): 3.93 to 4.04 h | Postantibiotic effect (C. difficile ATCC 700057; 4× MIC): 3.93 h | Postantibiotic effect (C. difficile ATCC 700057; 8× MIC): 4.04 h | ED50 fold lower than that of fidaxomicin (C. difficile ATCC 43255; hamster, in vivo): 52.1 fold | ED50 fold lower than that of vancomycin (C. difficile ATCC 43255; hamster, in vivo): 39.0 fold | 50% effective dose (ED50) (C. difficile ATCC 43255; survival on day 20, oral once daily for 5 days, probit method): 0.0313 mg/kg/day | dosages with significant efficacy compared with vehicle control (C. difficile ATCC 43255; survival, log-rank test): ≥ 0.04 mg/kg | IC50 at 110 min (in vitro): > 100 µg/mL
